Measured values: paper PMC3419191, “Identification of Novel Piperazinylquinoxaline Derivatives as Potent Phosphoinositide 3-Kinase (PI3K) Inhibitors” (PLoS ONE, 2012)
pIC50: −log10 of the molar value.

How the values were obtained:
[1] = tested on: A549; assay: MTT assay, antiproliferative activity against A549 cells; assay type: cell-based; settings: Homo sapiens, 72 h, mean of at least two determinations
From the text: (§1) All synthesized target compounds were firstly tested for their antiproliferative activity against five human cancer cell lines, PC3, A549, HCT116, HL60, and KB, using MTT assay.
(§2) Human prostate cancer PC3 cells, lung adenocarcinoma epithelial A549 cells, colon cancer HCT116 cells, promyelocytic leukemia HL60 cells and nasopharyngeal carcinoma KB cells were obtained from the cell bank of the Institute of Biochemistry and Cell Biology, Chinese Academy of Sciences (Shanghai, China). The inhibitory activity of target compounds against tested cancer cell lines was measured using the MTT assay. PC3, A549, HCT116, HL60, and KB cancer cell lines were cultured in RPMI-1640 medium (Invitrogen, Carlsbad, CA, USA) with heat-inactivated 10% fetal bovine serum, penicillin (100 units/mL) and streptomycin (100 µg/mL) and incubated in an atmosphere with 20% oxygen and 5% carbon dioxide at 37°C. All tested compounds were dissolved in DMSO at concentrations of 10.0 mg/mL and diluted to appropriate concentrations. Cells were plated in 96-well plates for 24 h and subsequently treated with different concentrations of all tested compounds for 72 h. Viable cells were determined using 3-(4,5-dimethylthiazol-2-yl)-2,5-diphenyltetrazolium bromide assay kit (MTT, Sigma) according to operation instructions provided by the manufacturer. The concentration of drug causing 50% inhibition in absorbance compared with control cells (IC50) was calculated using the software of dose-effect analysis with microcomputers.

[2] = tested on: HCT116; assay: MTT assay, antiproliferative activity against HCT116 cells; assay type: cell-based; settings: Homo sapiens, HCT-116, 72 h, mean of at least two determinations
From the text: as §1, §2

[3] = target: T1, recombinant human PI3Kα (Homo sapiens, UniProt P42336); assay: Competitive fluorescence polarization (FP) assay, inhibition of PI3Kα; assay type: biochemical; settings: for Binding efficiency index (BEI): BEI = pIC50 (M)/MW (kDa), PI3Kα
T1 construct: purchased Echelon Biosciences (Salt Lake City, UT, USA) E-2000
Protocol: Selected compounds were then tested for their enzymatic inhibitory activity against PI3Kα using a competitive fluorescence polarization (FP) assay to determine the molecular target of synthesized compounds [21].
The PI3Kα inhibitory test was determined using a competitive fluorescence polarization kinase activity assay. PI3K fluorescence polarization assay kit (catalog No. K-1100) and recombinant human PI3Kα (catalog No. E-2000) were purchased from Echelon Biosciences (Salt Lake City, UT, USA). PI3K reactions were performed in 5 mM HEPES, Ph 7, 2.5 mM MgCl2, 10 mM DTT and 50 µM ATP, using diC8-phosphatidylinositol-4, 5-bisphosphate (PIP2) as the substrate, and the final reaction volumes were 10 µL. For evaluation of the PI3Kα inhibitory activity of target compounds, 50 ng enzyme and 10 µM substate were used per 10 µL reaction volume with the concentrations of inhibitors ranging from 3.2 nM to 10 µM. After incubating for 3 h at room temperature, reactions were quenched by adding chelators. A mixture of phosphoinositide binding protein was added and mixed, followed by the addition of a fluorophore-labeled phosphoinositide tracer. Samples were then mixed in 384-well black Corning nonbinding plates (Corning, NY, USA) and incubated in a dark environment for 1 h to equilibrate. Finally, polarization values were measure using red fluorophores with appropriate filters to determine the extent of enzyme activity in the reaction.

[4] = tested on: PC3; assay: MTT assay, antiproliferative activity against PC3 cells; assay type: cell-based; settings: Homo sapiens, PC-3, 72 h, mean of at least two determinations
From the text: as §1, §2

[5] = tested on: KB; assay: MTT assay, antiproliferative activity against KB cells; assay type: cell-based; settings: Homo sapiens, 72 h, mean of at least two determinations
From the text: as §1, §2

[6] = tested on: HL60; assay: MTT assay, antiproliferative activity against HL60 cells; assay type: cell-based; settings: Homo sapiens, HL-60, 72 h, mean of at least two determinations
From the text: as §1, §2

[7] = FP assay, 50 µM ATP, mean of at least two determinations

T1 sequence (P42336 whole entry): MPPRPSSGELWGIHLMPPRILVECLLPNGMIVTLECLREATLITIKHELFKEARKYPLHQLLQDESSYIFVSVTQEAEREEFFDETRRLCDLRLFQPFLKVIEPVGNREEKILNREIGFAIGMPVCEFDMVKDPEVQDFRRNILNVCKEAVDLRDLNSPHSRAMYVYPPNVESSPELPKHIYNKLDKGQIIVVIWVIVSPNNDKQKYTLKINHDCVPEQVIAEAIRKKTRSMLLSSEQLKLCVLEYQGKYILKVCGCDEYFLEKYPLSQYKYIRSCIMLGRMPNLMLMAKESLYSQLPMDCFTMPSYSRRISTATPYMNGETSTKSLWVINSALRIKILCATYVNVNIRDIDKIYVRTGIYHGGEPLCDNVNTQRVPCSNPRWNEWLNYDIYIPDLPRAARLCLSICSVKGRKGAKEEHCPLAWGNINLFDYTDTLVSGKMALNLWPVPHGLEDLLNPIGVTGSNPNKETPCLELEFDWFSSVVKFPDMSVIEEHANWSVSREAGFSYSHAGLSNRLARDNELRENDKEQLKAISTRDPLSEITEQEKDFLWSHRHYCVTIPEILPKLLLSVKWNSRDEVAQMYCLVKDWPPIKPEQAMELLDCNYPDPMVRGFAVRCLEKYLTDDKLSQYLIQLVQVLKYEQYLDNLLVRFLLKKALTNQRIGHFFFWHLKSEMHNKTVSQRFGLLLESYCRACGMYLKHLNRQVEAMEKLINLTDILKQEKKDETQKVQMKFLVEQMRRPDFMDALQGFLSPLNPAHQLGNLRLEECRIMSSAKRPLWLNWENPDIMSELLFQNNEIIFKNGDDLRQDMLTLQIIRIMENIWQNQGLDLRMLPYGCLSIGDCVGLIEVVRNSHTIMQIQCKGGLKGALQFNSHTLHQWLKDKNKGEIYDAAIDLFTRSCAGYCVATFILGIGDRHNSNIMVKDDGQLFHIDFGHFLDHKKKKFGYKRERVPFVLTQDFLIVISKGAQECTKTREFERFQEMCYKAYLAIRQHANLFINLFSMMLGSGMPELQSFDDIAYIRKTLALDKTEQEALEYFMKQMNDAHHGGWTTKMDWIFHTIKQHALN
T1 sequence (P27986 whole entry partner): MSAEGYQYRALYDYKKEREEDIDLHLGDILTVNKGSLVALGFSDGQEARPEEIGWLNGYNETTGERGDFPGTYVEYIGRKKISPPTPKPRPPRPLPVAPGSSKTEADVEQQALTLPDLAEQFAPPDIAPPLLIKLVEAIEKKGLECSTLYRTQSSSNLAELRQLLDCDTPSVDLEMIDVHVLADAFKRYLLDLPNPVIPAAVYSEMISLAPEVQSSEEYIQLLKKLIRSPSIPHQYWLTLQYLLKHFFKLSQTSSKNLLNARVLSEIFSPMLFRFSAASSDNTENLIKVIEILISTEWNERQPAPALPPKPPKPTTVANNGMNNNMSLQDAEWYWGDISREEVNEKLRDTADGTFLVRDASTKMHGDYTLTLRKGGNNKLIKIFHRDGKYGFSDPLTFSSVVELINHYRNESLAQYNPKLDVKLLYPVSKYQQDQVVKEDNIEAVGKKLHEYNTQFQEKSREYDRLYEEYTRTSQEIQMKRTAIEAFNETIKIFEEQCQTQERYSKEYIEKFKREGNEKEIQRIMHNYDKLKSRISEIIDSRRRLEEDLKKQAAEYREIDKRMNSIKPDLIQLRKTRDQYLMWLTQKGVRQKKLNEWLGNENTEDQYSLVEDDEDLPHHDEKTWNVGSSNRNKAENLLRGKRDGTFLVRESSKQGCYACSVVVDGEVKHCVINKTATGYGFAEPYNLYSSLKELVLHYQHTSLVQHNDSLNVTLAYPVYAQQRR

pIC50 [1]	pIC50 [2]	Binding efficiency index (BEI) [3]	pIC50 [3, 7]	pIC50 [4]	pIC50 [5]	pIC50 [6]	melting point	pIC50 ([3]; as used for BEI, Table 5)	SMILES
6.47	6.66	11.9	6.70	5.92					O=S(=O)(c1ccc(Br)cc1)c1nc2ccccc2nc1N1CCN(CCCN2CCOCC2)CC1 [Compound 52, 2-(4-(3-Morpholinopropyl)piperazin-1-yl)-3-(4-bromophenylsulfonyl)quinoxaline]
		17.0							O=S(=O)(c1ccc(Br)cc1)c1nc2ccccc2nc1N1CCC(O)CC1 [WR23, reference compound]
5.28	4.37		< 5.00	5.30	5.91	5.14	224 to 226 °C		O=C(c1ccccc1)N1CCN(c2nc3ccccc3nc2S(=O)(=O)c2ccccc2)CC1 [Compound 29, 2-(4-Benzoylpiperazin-1-yl)-3-(phenylsulfonyl)quinoxaline]
4.57	5.80		< 5.00	5.92	4.86	6.66	170 to 174 °C		NC(=O)C1CCN(c2nc3ccccc3nc2S(=O)(=O)c2ccccc2)CC1 [Compound 4, 2-(4-Carbamoylpiperidin-1-yl)-3-(phenylsulfonyl)Fquinoxaline]
4.90	5.27	17.9		4.72		5.35			O=S(=O)(c1ccccc1)c1nc2ccccc2nc1N1CCOCC1 [WR1, reference compound]
5.88	6.39	12.4	6.36	5.71			194 to 196 °C		CS(=O)(=O)N1CCN(c2nc3ccccc3nc2S(=O)(=O)c2ccc(Br)cc2)CC1 [Compound 42, 2-(4-(Methylsulfonyl)piperazin-1-yl)-3-(4-bromophenylsulfonyl)quinoxaline]
5.99	5.74	15.1	5.96	5.65	5.35	5.61	144 to 146 °C		CC(=O)N1CCN(c2nc3ccccc3nc2S(=O)(=O)c2ccccc2)CC1 [Compound 9, 2-(4-Acetylpiperazin-1-yl)-3-(phenylsulfonyl)quinoxaline]
5.80	5.93	16.2	6.19	5.69	5.04	7.05	136 to 138 °C		Cc1ccc(S(=O)(=O)c2nc3ccccc3nc2N2CCNC(C)C2)cc1 (centres unmarked) [Compound 25, 2-(3-Methylpiperazin-1-yl)-3-(4-methylphenylsulfonyl)quinoxaline]
5.78	6.27	16.6	6.62	6.03	5.07	6.80	130 to 133 °C	6.62	COc1ccc(S(=O)(=O)c2nc3ccccc3nc2N2CCNC(C)C2)cc1 (centres unmarked) [Compound 26, 2-(3-Methylpiperazin-1-yl)-3-(4-methoxyphenylsulfonyl)quinoxaline]
5.90	6.48	13.3	5.99	5.48			206 to 207 °C		CS(=O)(=O)N1CCN(c2nc3ccccc3nc2S(=O)(=O)c2ccc(F)cc2)CC1 [Compound 43, 2-(4-(Methylsulfonyl)piperazin-1-yl)-3-(4-fluorophenylsulfonyl)quinoxaline]
4.85	5.56		< 5.00	5.53	5.34	6.11	154 to 157 °C		CN1CCN(c2nc3ccccc3nc2S(=O)(=O)c2ccccc2)CC1 [Compound 14, 2-(4-Methylpiperazin-1-yl)-3-(phenylsulfonyl)quinoxaline]
5.87	6.17	19.7	7.23	5.84	5.06	6.82			CC1CN(c2nc3ccccc3nc2S(=O)(=O)c2ccccc2)CCN1 (centres unmarked) [Compound 24, 2-(3-Methylpiperazin-1-yl)-3-(phenylsulfonyl)quinoxaline]
6.14	6.19	14.0	6.74	5.29					O=S(=O)(c1ccccc1)c1nc2ccccc2nc1N1CCN(CCCN2CCOCC2)CC1 [Compound 49, 2-(4-(3-Morpholinopropyl)piperazin-1-yl)-3-(phenylsulfonyl)quinoxaline]
5.71	5.97		6.34	5.27					Cc1ccc(S(=O)(=O)c2nc3ccccc3nc2N2CCN(S(C)(=O)=O)CC2)cc1 [Compound 40, 2-(4-(Methylsulfonyl)piperazin-1-yl)-3-(4-methylphenylsulfonyl)quinoxaline]
4.32	5.42			5.47	5.29	5.02	172 to 174 °C		Cc1ccc(S(=O)(=O)N2CCN(c3nc4ccccc4nc3S(=O)(=O)c3ccc(F)cc3)CC2)cc1 [Compound 48, 2-(4-(4-Methylphenylsulfonyl)piperazin-1-yl)-3-(4-fluorophenylsulfonyl)-quinoxaline]
4.89	6.00	19.0	6.72	6.05	5.08	6.96			O=S(=O)(c1ccccc1)c1nc2ccccc2nc1N1CCNCC1 [Compound 19, 2-(Piperazin-1-yl)-3-(phenylsulfonyl)quinoxaline]
5.63	5.92	13.6	5.87	5.97			182 to 185 °C		CS(=O)(=O)N1CCN(c2nc3ccccc3nc2S(=O)(=O)c2ccccc2)CC1 [Compound 39, 2-(4-(Methylsulfonyl)piperazin-1-yl)-3-(phenylsulfonyl)quinoxaline]
4.75	5.06			5.39	5.73	5.35	214 to 215 °C		O=C(c1ccc(Cl)cc1)N1CCN(c2nc3ccccc3nc2S(=O)(=O)c2ccc(F)cc2)CC1 [Compound 38, 2-(4-(4-Chlorobenzoyl)piperazin-1-yl)-3-(4-fluorophenylsulfonyl)quinoxaline]
4.67	5.01			5.44	5.55	5.22	188 to 190 °C		Cc1ccc(S(=O)(=O)c2nc3ccccc3nc2N2CCN(C(=O)c3ccc(Cl)cc3)CC2)cc1 [Compound 35, 2-(4-(4-Chlorobenzoyl)piperazin-1-yl)-3-(4-methylphenylsulfonyl)quinoxaline]
5.62	5.59			5.64	5.41	5.48	148 to 150 °C		CC(=O)N1CCN(c2nc3ccccc3nc2S(=O)(=O)c2ccc(C)cc2)CC1 [Compound 10, 2-(4-Acetylpiperazin-1-yl)-3-(4-methylphenylsulfonyl)quinoxaline]
< 4.30	4.85			5.21	5.63	4.83	172 to 175 °C		COc1ccc(S(=O)(=O)c2nc3ccccc3nc2N2CCN(S(=O)(=O)c3ccc(C)cc3)CC2)cc1 [Compound 46, 2-(4-(4-Methylphenylsulfonyl)piperazin-1-yl)-3-(4-methoxyphenylsulfonyl)-quinoxaline]
